Results from patent US4929751A, “Vinyl tricarbonyl compounds and methods of making the same” (Yale University, priority 1987, dated 1990).
Read-outs that look alike come from different tables or passages of the source.

What was measured:
Format in all cases: cell-based
[1] = tested on: OVCAR-5 (ovarian); assay: growth inhibition of tumor cell line; conditions: for IC50: Homo sapiens, OVCAR-5
Text: (§1) t-Butyl 2,3-dioxo-pent-4-enoate hydrate (A) was contacted with various cell lines as indicated on Table 1 hereinbelow in the column designated as "CELL" or "TUMOR". […]
(§2) As described below, the data in Table 1 serve to display the testing results on disease category selectivity in a bar graph format. Bars projecting to the right of the reference (vertical line of asterisks) indicate greater than average sensitivity to the test compound. Each bar represents one power of ten in sensitivity, so that the results for OVCAR-5 (ovarian tumor) indicate a remarkable […] increase in sensitivity over the reference test.
(§3) Table 1 reports and illustrates the results obtained by testing t-butyl 2,3-dioxo-pent-4-enoate hydrate. The concentration of this compound found to inhibit the growth of each cell line listed under "CELL" by 50% is reported under "LOG(IC50)" as the logarithm of the concentration. The units of concentration are either molarity in which case an "M" is shown in parentheses next to the LOG(IC50) label, or micrograms per ml, in which case a "W" (for weight) is shown in parenthesis. The cell line names are grouped by disease type and the disease type names are listed on the far left.

[2] = tested on: tumor cells; assay: growth inhibition of tumor cells, whole panel (mean graph)
Text: as §1, §3
(§4) The graph on the right depicts the data on the left in a format called a "MEAN GRAPH" which is designed to aid in the identification of differential growth inhibition. […] The interest in using this concept of differential growth inhibition as a criterion of activity in the screening system is to encourage the discovery of new types of anticancer agents having greater tissue specificity than cancer chemotherapeutic agents in use today.
(§5) The idea for the Mean Graph resulted from trying to detect differential growth inhibition in a bar graph format Experimentation led to a graph centered at the arithmetic mean (ML) of the logarithm of the IC50'a of all the cell line responses measured for a compound. The Mean Graph is constructed around a vertical reference (indicating ML) by projecting bars to the right or to the left. […] The lengths of the bars are proportional to the differences between the logarithms of the specific cell line IC50's and the overall mean value ML. These lengths represent differences in logarithms which are equivalent to the ratios of the specific IC50's to the geometric mean of all the IC50's. Therefore, a useful property of the Mean Graph format is the ability to compare patterns derived from IC50's measured in different units, e.g, micrograms per ml and molarity. The units cancel in the division process.
(§6) Differential growth inhibition is depicted as a bar projecting some distance to the right of ML. A bar projecting three log units to the right of ML, for example, would reflect a cellular sensitivity 1000 times greater than ML. While any degree of sensitivity greater than ML might theoretically be considered differential growth inhibition, in practice one must consider the experimental error in the measurement and at what point the degree of differential growth inhibition becomes meaningful in biological terms. The three values listed a the bottom of the graph provide the value of ML as "AVE LOG(IC50)", the greatest difference from ML as "DELTA" and the difference between the least sensitive cell line and the most sensitive cell line as the "RANGE".

[3] = tested on: MCF-7/ADR (resistant breast cancer); assay: growth inhibition of tumor cell line; conditions: Homo sapiens
Text: as §1, §3

[4] = tested on: RPMI-7951 (melanoma); assay: growth inhibition of tumor cell line; conditions: Homo sapiens
Text: as §1, §3

[5] = tested on: MCF-7 (breast); assay: growth inhibition of tumor cell line; conditions: Homo sapiens
Text: as §1, §3

[6] = tested on: OVCAR-8 (ovarian); assay: growth inhibition of tumor cell line; conditions: Homo sapiens
Text: as §1, §3

[7] = tested on: H520 (nonsmall cell lung cancer); assay: growth inhibition of tumor cell line; conditions: Homo sapiens, NCI-H520
Text: as §1, §3

[8] = tested on: A2780 (ovarian); assay: growth inhibition of tumor cell line; conditions: Homo sapiens
Text: as §1, §3

[9] = tested on: LOVO (colon); assay: growth inhibition of tumor cell line; conditions: Homo sapiens
Text: as §1, §3

[10] = tested on: renal cell lines; assay: disease category selectivity
Text: as §2, §3, §4, §5, §6

[11] = tested on: central nervous system cell lines; assay: disease category selectivity; conditions: CNS
Text: as §2, §3, §4, §5, §6

[12] = tested on: colon cell lines; assay: disease category selectivity
Text: as §2, §3, §4, §5, §6

[13] = tested on: melanoma cell lines; assay: disease category selectivity; conditions: MEL
Text: as §2, §3, §4, §5, §6

[14] = tested on: small cell lung cancer cell lines; assay: disease category selectivity; conditions: SCLC
Text: as §2, §3, §4, §5, §6

[15] = tested on: leukemia cell lines; assay: disease category selectivity; conditions: LEUK
Text: as §2, §3, §4, §5, §6

[16] = tested on: RESISTL (resistant lung cancer) cell lines; assay: disease category selectivity
Text: as §2, §3, §4, §5, §6

[17] = tested on: PS cell lines; assay: disease category selectivity
Text: as §2, §3, §4, §5, §6

[18] = tested on: ovarian cell lines; assay: disease category selectivity
Text: as §2, §3, §4, §5, §6

[19] = tested on: nonsmall cell lung cancer cell lines; assay: disease category selectivity; conditions: NSCLC
Text: as §2, §3, §4, §5, §6

[20] = tested on: resistant breast cancer cell lines; assay: disease category selectivity; conditions: RESISTB
Text: as §2, §3, §4, §5, §6

[21] = tested on: breast cell lines; assay: disease category selectivity
Text: as §2, §3, §4, §5, §6

[22] = logarithm of the concentration inhibiting growth by 50%, read-out: LOG(IC50) (converted)
[23] = mean LOG(IC50) of category, 4 cell lines, read-out: MEAN CAT (converted)
[24] = mean LOG(IC50) of category, 5 cell lines, read-out: MEAN CAT (converted)
[25] = mean LOG(IC50) of category, 1 cell line, read-out: MEAN CAT (converted)

C=CC(=O)C(O)(O)C(=O)OC(C)(C)C [t-butyl 2,3-dioxo-pent-4-enoate hydrate]
IC50 ([1]; read-out: IC-50 MEAN): 2.01 µM
IC50 [1, 22]: 1.26 µM
effectiveness against ovarian cell line OVCAR-5 ([1]; in words): particularly effective
IC50 ([2]; arithmetic mean of the logarithm of the IC50 of all cell lines, read-out: AV TC50 (AVE LOG(IC50), ML) (converted)): 74.1 µM
RANGE ([2]; difference between least and most sensitive cell line, log units): 2.3
DELTA ([2]; greatest difference from ML, log units): 1.8
IC50 ([2]; mean over the cell lines, read-out: IC-50 MEAN, NSC MEAN): 79.1 µM
IC50 ([2]; total cell lines used = 42, read-out: MEAN OF ALL LOGIC50'S (converted)): 100 µM
IC50 ([3]; NCI/ADR-RES, MCF-7/ADR, read-out: IC-50 MEAN): 96 µM
IC50 ([3]; MCF-7/A, logarithm of the concentration inhibiting growth by 50%, read-out: LOG(IC50) (converted)): 100 µM
IC90 [4]: 178 µM
IC50 ([4]; RPMI-79, logarithm of the concentration inhibiting growth by 50%, read-out: LOG(IC50) (converted)): 79.4 µM
IC50 ([4]; read-out: IC-50 MEAN): 76.7 µM
IC90 ([5]; MCF7): 232 µM
IC50 ([5]; MCF7, logarithm of the concentration inhibiting growth by 50%, read-out: LOG(IC50) (converted)): 100 µM
IC50 ([5]; MCF7, read-out: IC-50 MEAN): 98.1 µM
IC90 [6]: 263 µM
IC50 [6, 22]: 126 µM
IC50 ([6]; read-out: IC-50 MEAN): 114 µM
IC50 ([7]; H520, logarithm of the concentration inhibiting growth by 50%, read-out: LOG(IC50) (converted)): 100 µM
IC50 ([7]; read-out: IC-50 MEAN): 105 µM
IC90 [8]: 249 µM
IC50 [8, 22]: 63.1 µM
IC50 ([8]; read-out: IC-50 MEAN): 70.3 µM
IC90 ([9]; LoVo): 262 µM
IC50 ([9]; LoVo, read-out: IC-50 MEAN): 96.6 µM
IC50 ([9]; LOVO, logarithm of the concentration inhibiting growth by 50%, read-out: LOG(IC50) (converted)): 100 µM
DIFF CAT ([10]; difference from mean): 0.1
IC50 ([10]; mean LOG(IC50) of category, 3 cell lines, read-out: MEAN CAT (converted)): 79.4 µM
DIFF CAT ([11]; difference from mean): 0.2
IC50 [11, 23]: 100 µM
DIFF CAT ([12]; difference from mean): -0.1
IC50 [12, 23]: 63.1 µM
DIFF CAT ([13]; difference from mean): 0
IC50 [13, 24]: 79.4 µM
DIFF CAT ([14]; difference from mean): 0
IC50 [14, 24]: 79.4 µM
DIFF CAT ([15]; difference from mean): -0.4
IC50 ([15]; mean LOG(IC50) of category, 2 cell lines, read-out: MEAN CAT (converted)): 31.6 µM
DIFF CAT ([16]; difference from mean): 0.2
IC50 [16, 25]: 126 µM
DIFF CAT ([17]; difference from mean): 0.1
IC50 [17, 25]: 100 µM
DIFF CAT ([18]; difference from mean): -0.2
IC50 [18, 24]: 50.1 µM
DIFF CAT ([19]; difference from mean): 0
IC50 ([19]; mean LOG(IC50) of category, 10 cell lines, read-out: MEAN CAT (converted)): 79.4 µM
DIFF CAT ([20]; difference from mean): 0.1
IC50 [20, 25]: 100 µM
DIFF CAT ([21]; difference from mean): 0.1
IC50 [21, 25]: 100 µM
